The values below come from patent US20110207689A1, “THE TREATMENT OF HEARING LOSS” (Auckland UniServices Limited, priority 2008, published 2011).

“Also recorded” adds a separate entry of the source.

Common to all, as to type: in vivo, Wistar rats
For series [1], the system named is organ of Corti hair cells. Nature of the series: Hair cell loss, phalloidin-stained organ of Corti after 24 hours noise (Experiment 1). Conditions: basal turn, noise 8-12 kHz 110 dB SPL 24 hours, versus vehicle. An excerpt:
After the last ABR measurement, rats were killed by Pentobarbitone overdose and cochleae removed for histological analysis. The isolated cochleae were kept in 4% Paraformaldehyde overnight, until further processing (decapsulation or decalcification).
(§1) After the overnight fixation, the cochlea was decapsulated in 0.1 M PBS, to isolate the organ of Corti. The organ of Corti was removed with fine forceps, and separated into the apical, middle and basal turns. Wholemount tissues of the organ of Corti were placed into a 24-well plate, and then permeabilised with 1% Trition-X in 0.1 M PBS for 1 hour. 1% Alexa Fluor 488 phalloidin (Invitrogen) dissolved in 0.1 M PBS was used to stain the hair cells and their stereocilia. Tissues were incubated in phalloidin for 40 minutes, washed with 0.1 M PBS 3×10 min and mounted onto glass slides using CitiFlour. The slides were visualised using a Zeiss epi-fluorescence microscope and processed with Axiovision v3.1 software, using dark field filter and 100×, 200×, and 400× magnification. Non-overlapping images were taken for the entire length of the cochlea, and the number of missing outer hair cells was counted for each turn and presented as a percentage of total number of hair cells.

The subject of series [2] is nitrotyrosine immunoreactivity in the organ of Corti. Description: Nitrotyrosine (NT) immunohistochemistry of cochlea after 24 hours noise (Experiment 1). Conditions: ADAC treated cochlea versus vehicle. How it is done:
Hearing thresholds were assessed using auditory brainstem responses (ABRs) and the cellular damage was evaluated by quantitative histology (hair cell loss). ABR represents the activity of the auditory nerve and the central auditory pathways (brainstem/mid-brain regions) responding to the sound (clicks or pure tones). Nitrotyrosine marker was used for the immunohistochemical assessment of free radical damage.
After overnight fixation in 4% PFA, rat cochleae were decalcified in a 5% EDTA solution for 7 days and cryoprotected in a 30% sucrose (in 0.1 M PB) solution overnight. The cochleae were snap-frozen in N-pentane, and stored at −80° C. until further processing. Frozen cochlear tissues were cryosectioned at 30 μm and transferred into 24-well plates (Nalge Nunc Int., Naperville, USA) containing the sterile 0.1M PBS, and permeabilised with 1% Triton X-100 for 1 hr. Non-specific binding sites were blocked with 10% normal goat serum (Vector Laboratories, Burlingame, Calif.). […] Tissue sections were incubated with the secondary antibody for 2 hours in the dark, then rinsed several times in PBS, mounted in fluorescence medium (DAKO Corporation, Carpinteria, Calif., USA) and screened for NT specific immunofluorescence using a confocal microscope (TCS SP2, Leica Leisertechnik GmbH, Heidelberg, Germany). […]

Series [3] concerns rats exposed to 8-12 kHz band noise for 2 hours at 110 dB SPL. Nature of the series: ABR threshold shifts after acute (2 hours) noise exposure, systemic ADAC (Experiment 2). The conditions noted are these: 14 days post-noise. As to the method: ABRs were measured in response to auditory clicks and pure tones (4-28 kHz) before and at time intervals (30 minutes and 14 days) after noise exposure. Five ADAC injections (100 μg/kg i.p.) were administered at 24 hour intervals commencing 6 hours post-noise. In the control group, injections of the vehicle solution were administered at the same intervals as ADAC. Data are expressed as means±SEM. Animal numbers: n=8 per group. *p<0.05; **p<0.01; unpaired t-test.
Rats were exposed to 8-12 kHz band noise presented for 2 hours at 110 dB SPL. […]
ABRs were obtained by placing fine platinum electrodes subdermally at the mastoid region of the ear of interest (active electrode), scalp vertex (reference) and mastoid region of the opposite ear (ground electrode). […] The sound threshold of the ABR complex (waves I-IV) were determined by progressively attenuating the sound intensity until the waveform can no longer be observed. The acoustic stimuli for ABR were produced and the responses recorded using a Tucker-Davis Technologies auditory physiology workstation (Alachua, Fla., USA).
All ABR measurements were performed in a sound attenuator chamber (Shelburg Acoustics, Sydney, Australia). […] The ABR threshold was defined as the lowest intensity (to the nearest 5 dB) at which a response could be visually detected above the noise floor. […]

Series [4] is described as follows: Body weight, temperature and behaviour in animals treated with ADAC (Experiment 2). How it is done: A. Body weight was measured immediately before noise exposure and 14 days after noise exposure. B. Rectal temperature (° C.) was measured before ADAC administration and 30 and 60 minutes after the injection. Number of animals: n=8 per group.
The test system of series [5] is organ of Corti hair cells. Description: Hair cell counts after acute (2 hours) noise exposure (Experiment 2). The conditions noted are these: 2 h noise 110 dB SPL; five ADAC injections; vehicle 23-34%. How it is done:
as §1
The percentage of total number of hair cells was determined as for Experiment 1.
The outer and inner hair cells were counted in Alexa 488 phalloidin-labelled surface preparation of the organ of Corti in the basal, middle and apical turns and the percentage of missing hair cells was calculated for each turn.

As to `NCCNC(=O)Cc1ccc(NC(=O)Cc2ccc(Nc3ncnc4c3ncn4[C@@H]3O[C@H](CO)[C@@H](O)[C@H]3O)cc2)cc1` [ADAC, adenosine amine congener], in series [1], the “hair cell morphology, surface preparation of the organ of Corti” value is listed as “well preserved hair cell morphology”. For the same molecule, in series [2], the “NT immunostaining in the cochlea” value is recorded as “very little NT immunostaining; also recorded: reduced in the ADAC treated cochlea to a background level”. The “ABR threshold shifts versus vehicle-treated controls” value in series [3] (five ADAC injections) was “threshold shifts were reduced”. For the same molecule, the “threshold recovery, highest” value in series [3] (pure tone frequencies 4 to 16 kHz, five ADAC injections 100 μg/kg i.p. commencing 6 hours post-noise) is on record as “up to 30 dB”. Besides, the overt behavioural changes result in series [4] (ADAC 100 μg/kg) was “did not induce overt behavioural changes”. Moreover, the body weight result in series [4] (ADAC 100 μg/kg, before noise exposure and 14 days after) is listed as “did not induce overt behavioural changes in rats or alterations in body weight”. In series [4] (ADAC treatment), the “signs of systemic toxicity (loss of body weight, feeding or drinking behaviour, hypothermia)” value is “No signs of systemic toxicity”. The “body temperature (rectal)” value in series [4] (before and 30 and 60 minutes after ADAC 100 μg/kg injection) is “remained stable”. In addition, in series [5], the “hair cell loss, basal cochlear turn (average)” value is 9% and the “hair cell loss, middle cochlear turn (average)” value was determined as 7%.
